Data set [1] concerns adult patients with biopsy-confirmed NASH. As to conditions: cited from earlier work.
The subject of data set [2] is adult, non-diabetic patients with NASH. Kind of data set: PIVENS trial (Pioglitazone versus Vitamin E versus Placebo), ancillary analysis of responders, NAS, ALT, HOMA-IR. In kind it is in vivo, human. How it is done:
A pilot Ancillary Study to the Pioglitazone versus Vitamin E versus Placebo for the Treatment of nondiabetic Patients with Nonalcoholic Steatohepatitis (PIVENS) trial (Sanyal 2010), was conducted to ask whether hepatic Notch signaling tracks with disease pathology, and thus represent a novel biomarker of NAFLD/NASH.
PIVENS investigators randomized adult, non-diabetic patients with NASH to therapy with placebo, vitamin E (800 IU daily) or pioglitazone (30 mg daily), and had strict inclusion and exclusion criteria for trial entry, as well as a thorough clinical phenotyping of these patients (Sanyal 2011; Sanyal 2010). The PIVENS primary outcome was an improvement in NASH pathology, defined by improved hepatocellular ballooning without increase in fibrosis, and either a 2+ point decrease in NAS or to a score of ≤3 points.
Research-grade specimens were saved from subjects from the PIVENS trial for Ancillary Studies (Chalsani 2009). These samples were used to test the potential role of Notch signaling as either a biomarker or contributor to the NAFLD/NASH pathology.
(§1) A subset (Table 1, right), of PIVENS research subjects had paired baseline and 96 wk cDNA available for analysis.

The test system is the same in data set [3]. As to conditions: final analysis; vitamin E 800 IU daily, pioglitazone 30 mg daily; cited from earlier work.
The test system of a further data set is HES1. Kind of data set: PIVENS paired baseline and 96 wk liver cDNA, HES1 expression. Conditions: Vitamin E-treated responders, baseline vs 96 wk. In kind it is in vivo, human.
Excerpt: as §1
(§2) Sample size calculations are based from PIVENS data as described in Example 9A, and exclude pioglitazone-treated patients to be conservative. Using data derived from paired samples in Vitamin E-treated responders (mean difference of 1.11±0.51 fg/ng 18S for HES1 and 2.27±0.71 fg/ng 18S for HEYL), we calculated using unpaired t-testing with type I error=0.05 and type II error=[…], that 12 before-and-after biopsies in FLINT are required to detect a statistically significant difference in OCA-responders for both HES1 and HEYL.

The test system of a further data set is HEYL. Kind of data set: PIVENS paired baseline and 96 wk liver cDNA, HEYL expression. As to conditions: Vitamin E-treated responders, baseline vs 96 wk. In kind it is in vivo, human.
Excerpt: as §1, §2

[4] abbreviates: Cross-sectional study, nonresponders (NR).
Setting [5] is: Cross-sectional study, responders (R).
The mark [6] stands for this setting: Cross-sectional study, number of subjects with NASH resolution or primary PIVENS outcome.
Where [7] appears, read: Longitudinal study, nonresponders (NR).
[8] abbreviates: Longitudinal study, responders (R).
Where [9] appears, read: Longitudinal study, number of subjects.

Where two headings read alike, the source gives them in different places.

On to `CC[C@H]1[C@@H](O)[C@@H]2[C@H](CC[C@]3(C)[C@@H]([C@H](C)CCC(=O)O)CC[C@@H]23)[C@@]2(C)CC[C@@H](O)C[C@@H]12` [OCA, obeticholic acid], for which the HOMA-IR entry in data set [1] (change, p=0.01) was “+13 U”. For the same compound, the insulin result in data set [1] (change, p=0.02) is “+29 pmol/L”. In data set [1] (in vivo), the HDL cholesterol entry is “significant lowering” and the insulin resistance entry was “increased insulin resistance”. Also, the insulin resistance result in data set [1] (in vivo, listed as obeticholic acid) was “clearly induced insulin resistance”.

Consider `CCc1ccc(CCOc2ccc(CC3SC(=O)NC3=O)cc2)nc1` (stereo not shown) [PIO, pioglitazone], for which the “Responders (%)” value was “(78%)” in data set [2] (Cross-sectional study) and “(75%)” in data set [2] (Longitudinal study). The ALT in data set [2] (setting [4]) is listed as 46 U/L; in data set [2] (setting [5]), 34 ± U/L; in data set [2] (setting [7]), 56 U/L; in data set [2] (setting [8]) it was 41 U/L. For the same compound, the HOMA-IR is given as 5.5 in data set [2] (setting [4]), 2.9 ± in data set [2] (setting [5]), 4.1 in data set [2] (setting [7]) and 3.3 in data set [2] (setting [8]). For the same compound, the NAS in data set [2] (setting [4]) is on record as 4.8; in data set [2] (setting [5]), 2.2 ±; in data set [2] (setting [7]), 5.0; in data set [2] (setting [8]), 3.0. For the same compound, the Responders in data set [2] (setting [6]) amounted to 29; in data set [2] (setting [9]), 3.

Consider vitamin E [VitE], for which, in data set [3], the “PIVENS primary outcome (improvement in NASH pathology)” value is “met the primary outcome”. Also, the “mean difference of HES1 in paired samples” value in the data set with HES1 is recorded as 1.11±0.51 fg/ng 18S. The “Responders (%)” value in data set [2] (Cross-sectional study) is reported as “(61%)”; in data set [2] (Longitudinal study), “(60%)”. Besides, the ALT in data set [2] (setting [4]) was 55 U/L; in data set [2] (setting [5]), 33 U/L; in data set [2] (setting [7]), 58 U/L; in data set [2] (setting [8]), 45 U/L. For the same compound, the HOMA-IR in data set [2] (setting [4]) amounted to 5.6; in data set [2] (setting [5]) it was 5.2; in data set [2] (setting [7]), 5.1; in data set [2] (setting [8]), 5.1. In addition, the NAS in data set [2] (setting [4]) is 4.6; in data set [2] (setting [5]), 2.7 ±; in data set [2] (setting [7]), 3.9; in data set [2] (setting [8]), 2.6. Also, the figures for the Responders in data set [2] (setting [6]) and in data set [2] (setting [9]) were 25 and 6, respectively. Further, the “mean difference of HEYL in paired samples” value with HEYL is recorded as 2.27±0.71 fg/ng 18S.

Source of the values: patent US10801068B2, “JAG1 expression predicts therapeutic response in NASH” (The Trustees of Columbia University in the City of New York, priority 2015, dated 2020).
